According to US12269012B2, “Columns and methods of use for analytical standards and compounds” (priority 2018, dated 2025):
Where two headings read alike, the source gives them in different places.

Tests used:
[1] = Bound and recovery of PAH standards on PS-DVB on-column standards after 15 days of storage; assay type: physicochemical; settings: standards 0.1-9 ppm; for Average % Bound: PS-DVB pipette tip columns; for Average % Recovered: after 15 days of storage of on-column standards
Method: Primary stock solutions of PAHs, namely B(a)A, Ch, B(b)F and B(a)P, were prepared by dissolving 1-2 mg of each compound in 10.0 mL methanol separately. From these stock solutions, secondary working standard stock solutions were mixed together to constitute the working standards containing all the standards mixed together. The secondary standard mixtures were prepared to have final concentrations of 0.1-10 ppm. All primary and secondary working solutions were stored at −20° C.
PS-DVB 160 μL resin bed volume pipette tip columns (50 mg resin, particle size 70-100 μm particle size, 950 m^2/g surface area) from PhyNexus® (San Jose, CA) were activated with 500 μL of 1:1 methanol/water through five times recycling of the activation solution. The loading was achieved through ten times recycling of the 500 μL sample. Washing was carried out once, with 1:1 methanol/water (ten times recycling of 500 μL wash solution). After washing, the sorbent was dried for 1 minute through flushing ambient air in and out of the tip and then air dried and stored for 15 days.
PS-DVB sorbent retains PAHs due to strong π-π interactions between sorbent and PAHs. The PS/DVB on-column standards were prepared by loading 0.1, 0.3, 0.5, 0.7, 0.9, 1, 3, 5, 7, and 9 ppm standard mixtures. These corresponded to 50, 150, 250, 350, 450, 500, 1500, 2500, 3500, and 4500 ng by weight of each of the four PAH standards contained in the secondary standard mixture.

[2] = SPE binding and recovery of flavonoid standards from freshly prepared Oasis HLB cartridges; assay type: physicochemical; settings: 10, 15, and 20 ppm standard solutions
Method: In addition, on-column standards were prepared from the fresh standards. Unidirectional flow Oasis® HLB, 30 mg sorbent 1 mL cartridges were used as the solid phase extraction column. The appropriate amounts of standard compounds corresponding to 10-30 ppm were adsorbed to SPE sorbent Oasis® HLB cartridges.
The SPE columns were activated with 1 mL methanol and equilibrated with 1 mL water. The cartridges loaded with standard compound solutions dried and were stored in vacuum sealed packing.
The columns were stored for several days. The columns were washed with 1:1 methanol/water. Elution was performed twice with 500 μL 10% formic acid in methanol. HPLC-UV and ESI-MS were used to quantify the target compounds.

[3] = assay type: physicochemical
Method: All three solutions were combined to a final volume of 10.0 mL using pure methanol. From this stock solution, working standards at net final concentration of 10-30 ppm (each) were prepared by appropriate dilution of the stock solution into 1:1 methanol/water, v/v. All working solutions were stored at −20° C. as well as stored at room temperature (stability was monitored after 4 hours, 1 day, 3 days, 7 days, 10 days and 28 days' storage at room temperature) to monitor the extent of degradation.
Degradation Kinetics (0-28 Days) for wet storage at room temperature.
The stability of flavonoids was compared at wet storage (solution form at room temperature and at −20° C.) and dry storage (room temperature bound to sorbent and dry form in an open Eppendorf vial).

c1ccc2cc3c(ccc4ccccc43)cc2c1 [Benz(a)anthracene (B(a)A), Benz(a)anthracene]
Average % Bound [1]: 95-99%
Average % Recovered [1]: 100-102%

c1ccc2c(c1)cc1ccc3cccc4ccc2c1c34 [Benzo(a)pyrene (B(a)P), Benzo(a)pyrene]
Average % Bound [1]: 95-99%
Average % Recovered [1]: 96-100%

c1ccc2c(c1)-c1cccc3c1c-2cc1ccccc13 [Benzo(b)fluoranthene (B(b)F), Benzo(b)fluoranthene]
Average % Bound [1]: 95-99%
Average % Recovered [1]: 90-97%

c1ccc2c(c1)ccc1c3ccccc3ccc21 [Chrysene (Ch), Chrysene]
Average % Bound [1]: 95-99%
Average % Recovered [1]: 100-102%

O=c1c(O)c(-c2ccc(O)cc2)oc2cc(O)cc(O)c12 [Kaempferol, kaempferol]
Bound % (Oasis ® HLB, 30 mg, 1 ml sorbent) [2]: 100%

O=c1c(O)c(-c2cc(O)c(O)c(O)c2)oc2cc(O)cc(O)c12 [Myricetin, myricetin]
percent degradation ([3]; 0 h, 10 ppm): 0%
percent degradation ([3]; 0 h, 15 ppm): 0%
percent degradation ([3]; 0 h, 20 ppm): 0%
percent degradation ([3]; 0 h, 25 ppm): 0%
percent degradation ([3]; 0 h, 30 ppm): 0%
percent degradation ([3]; 4 h, 10 ppm): −0.4796%
percent degradation ([3]; 4 h, 15 ppm): −0.6270%
percent degradation ([3]; 4 h, 20 ppm): 1.520%
percent degradation ([3]; 4 h, 25 ppm): 0.1736%
percent degradation ([3]; 4 h, 30 ppm): 0.4265%
percent degradation ([3]; 1 day, 10 ppm): −0.9592%
percent degradation ([3]; 1 day, 15 ppm): 0.3134%
percent degradation ([3]; 1 day, 20 ppm): 2.690%
percent degradation ([3]; 1 day, 25 ppm): 3.211%
percent degradation ([3]; 1 day, 30 ppm): 0.9239%
percent degradation ([3]; 3 days, 10 ppm): 4.556%
percent degradation ([3]; 3 days, 15 ppm): 5.015%
percent degradation ([3]; 3 days, 20 ppm): 6.901%
percent degradation ([3]; 3 days, 25 ppm): 5.990%
percent degradation ([3]; 3 days, 30 ppm): 3.767%
percent degradation ([3]; 7 days, 10 ppm): 11.27%
percent degradation ([3]; 7 days, 15 ppm): 9.404%
percent degradation ([3]; 7 days, 20 ppm): 12.74%
percent degradation ([3]; 7 days, 25 ppm): 10.67%
percent degradation ([3]; 7 days, 30 ppm): 8.319%
percent degradation ([3]; 10 days, 10 ppm): 12.47%
percent degradation ([3]; 10 days, 15 ppm): 10.66%
percent degradation ([3]; 10 days, 20 ppm): 12.63%
percent degradation ([3]; 10 days, 25 ppm): 9.982%
percent degradation ([3]; 10 days, 30 ppm): 7.747%
percent degradation ([3]; 28 days, 10 ppm): 30.46%
percent degradation ([3]; 28 days, 15 ppm): 31.97%
percent degradation ([3]; 28 days, 20 ppm): 22.92%
percent degradation ([3]; 28 days, 25 ppm): 19.36%
percent degradation ([3]; 28 days, 30 ppm): 17.13%
Bound % (Oasis ® HLB, 30 mg, 1 ml sorbent) [2]: 100%

O=c1c(O)c(-c2ccc(O)c(O)c2)oc2cc(O)cc(O)c12 [Quercetin, quercetin]
percent degradation ([3]; 0 h, 10 ppm): 0%
percent degradation ([3]; 0 h, 15 ppm): 0%
percent degradation ([3]; 0 h, 20 ppm): 0%
percent degradation ([3]; 0 h, 25 ppm): 0%
percent degradation ([3]; 0 h, 30 ppm): 0%
percent degradation ([3]; 4 h, 10 ppm): −0.4024%
percent degradation ([3]; 4 h, 15 ppm): 0.1356%
percent degradation ([3]; 4 h, 20 ppm): −0.4094%
percent degradation ([3]; 4 h, 25 ppm): 0.4552%
percent degradation ([3]; 4 h, 30 ppm): −0.3121%
percent degradation ([3]; 1 day, 10 ppm): 0.4024%
percent degradation ([3]; 1 day, 15 ppm): −0.4070%
percent degradation ([3]; 1 day, 20 ppm): 0.1023%
percent degradation ([3]; 1 day, 25 ppm): 1.442%
percent degradation ([3]; 1 day, 30 ppm): −0.2496%
percent degradation ([3]; 3 days, 10 ppm): 3.822%
percent degradation ([3]; 3 days, 15 ppm): 2.442%
percent degradation ([3]; 3 days, 20 ppm): 1.842%
percent degradation ([3]; 3 days, 25 ppm): 2.656%
percent degradation ([3]; 3 days, 30 ppm): 0.9363%
percent degradation ([3]; 7 days, 10 ppm): 6.237%
percent degradation ([3]; 7 days, 15 ppm): 3.799%
percent degradation ([3]; 7 days, 20 ppm): 4.811%
percent degradation ([3]; 7 days, 25 ppm): 4.780%
percent degradation ([3]; 7 days, 30 ppm): 3.246%
percent degradation ([3]; 10 days, 10 ppm): 5.432%
percent degradation ([3]; 10 days, 15 ppm): 3.664%
percent degradation ([3]; 10 days, 20 ppm): 3.480%
percent degradation ([3]; 10 days, 25 ppm): 3.414%
percent degradation ([3]; 10 days, 30 ppm): 2.871%
percent degradation ([3]; 28 days, 10 ppm): 12.47%
percent degradation ([3]; 28 days, 15 ppm): 9.633%
percent degradation ([3]; 28 days, 20 ppm): 7.881%
percent degradation ([3]; 28 days, 25 ppm): 6.525%
percent degradation ([3]; 28 days, 30 ppm): 5.056%
Bound % (Oasis ® HLB, 30 mg, 1 ml sorbent) [2]: 100%
